Experimental data reported in patent US20150297619A1, “METHODS AND COMPOSITIONS FOR PRESERVING THE MUCOSAL BARRIER” (priority 2014, published 2015).

Columns and labels:
experimental shock = conditions: cited from earlier work
~20-kDa serine proteases = assay: Gelatin gel zymography of plasma, lung and intestine samples renatured with serine protease inhibitors; assay type: biochemical, rat; conditions: 75 μmol/L ANGD or 100 lmol/L TLCK in renaturing and developing buffers, lung, intestine samples
Procedure: Protease Activity—Gelatin gel zymography was completed as previously described. When present, the luminal contents from the jejunal tissue were discarded by gentle compression of the intestine before homogenization to prevent excess digestion of the gelatin substrate in the gels by luminal proteases. Tissues from shocked animals (flushed and nonflushed) as well as controls were rinsed and blotted dry before weighing. Protein concentration was determined using the BCA kit before mixing each sample in a 1:1 ratio with loading dye (containing sodiumdodecyl sulfate (SDS), but no reducing agent). Two microgram protein/lane of intestine or 20 μg protein/lane of lung homogenates were loaded. Plasma (0.5 μL) was mixed with 2 μL loading dye and loaded into each lane.
Samples were separated by gel electrophoresis in 11% sodiumdodecyl sulfate polyacrylamide gel electrophoresis (SDS-PAGE) gelatin impregnated gels. Upon separation, gel proteins were renatured in 2.5% Triton-X 100 in water (49, 15 min) before incubation at 37° C. overnight in developing buffer (0.05 mol/L Tris base, 0.2 mol/L NaCl, 4 μmol/L ZnCl2, 5 mmol/L CaCl2.2H2O). Gels were then fixed and stained (50% methanol, 10% acetic acid, 40% water, and 0.25% Coomassie blue solution) for 3 h, destained in water to achieve appropriate contrast before digital analysis (ImageJ).
To confirm that the ˜20-kDa bands were serine proteases, gels were renatured and developed in the aforementioned buffers with the addition of either 75 μmol/L serine protease inhibitor ANGD (nafamostat mesilate) or 100 lmol/L trypsin inhibitor tosyl-lysine chloromethyl ketone (TLCK) and compared to duplicate gels that were subject to the standard renaturation procedure.

intestinal villi = assay: Morphological analysis of intestinal villi after ex vivo ischemia (Van Gieson/hematoxylin); design: species or system rat; conditions: jejunum and ileum after 2 hrs ex vivo ischemia
Procedure: After the two-hour ischemic incubation, intestinal pieces from segments 2 (jejunum) and 7 (ileum) were embedded in O.C.T. (Tissue Tek, Torrance, Calif.) and snap frozen in t-methyl butane in liquid nitrogen. Intestine samples from segments 2 and 7 (for protease analysis) and segment 7 (for immunoblots) were snap frozen and stored for subsequent homogenization. Morphological Analysis and TUNEL Labeling—Intestinal segments frozen in O.C.T. were cut into 5 μm sections. Sections were fixed using ice-cold methanol (8 min at −20° C.) and immediately washed four times in distilled water. Nuclei were stained by incubating sections in freshly mixed Weigert's Iron Hematoxylin A and B (Electron Microscopy Science, Hatfield, Pa.) (10 min) followed by rinsing thoroughly with water. Collagen fibers were labeled by incubating (2 min) in Van Gieson's Solution (Electron Microscopy Science). Prior to mounting, all slides were dehydrated (70, 95, 100% ethanol) and cleaned with xylene. After air-drying overnight, sections were mounted using Hard Set Mounting Media (Vector Laboratories, Burlingame, Calif.). Digital images were captured with a 20× objective (numerical aperture 0.5) and digitally montaged together after background subtraction. The separation of the mucosal epithelial layer was quantified for groups that had intact villi following the two hour ischemic period. Images were blinded and the distance between the mucosal epithelial layer and the lamina propria was measured over five lengths across a minimum of 6 villi.

20 kDa serine proteases = assay: Gelatin gel zymography of pre-ischemic intestinal homogenates renatured with inhibitor: serine protease bands; assay type: biochemical, rat; conditions: inhibitor in renaturing and developing buffer: tranexamic acid 20 mM, doxycycline 1 mg/ml, GM-6001 1 ug/ml
Procedure: Gelatin Gel Zymography—Segments 2 and 7 from pre-ischemic intestines were homogenized (0.1 g tissue/ml homogenization buffer; PBS pH 7.4 with 0.5% hexadecyltrimethyl bromide) and centrifuged at 1.4×10^4 g for 20 minutes. Supernatants were stored at −80° C. until samples were processed.
To assess the proteolytic activities of individual proteases in intestinal tissue samples, sample volumes of 1 μl (with 2 μg of protein) were separated by gel electrophoresis in SDS-PAGE gels containing 80 μg/ml gelatin. […] The molecular weights of the proteases were estimated by use of a standard protein ladder (Invitrogen). Gels were digitized and bands were analyzed by densitometry in ImageJ (rsbweb.nih.gov/ij/).
These gels were compared to a concurrently run gel processed normally.

[1] = test system: MMP-9 dimers, pro-MMP-2, MMP-2, MMP-1 or MMP-3; assay: Gelatin gel zymography of pre-ischemic intestinal homogenates renatured with inhibitor: MMP bands; assay type: biochemical, rat; conditions: inhibitor in renaturing and developing buffer: tranexamic acid 20 mM, doxycycline 1 mg/ml, GM-6001 1 ug/ml
Procedure: Gelatin Gel Zymography—Segments 2 and 7 from pre-ischemic intestines were homogenized (0.1 g tissue/ml homogenization buffer; PBS pH 7.4 with 0.5% hexadecyltrimethyl bromide) and centrifuged at 1.4×10^4 g for 20 minutes. Supernatants were stored at −80° C. until samples were processed. To assess the proteolytic activities of individual proteases in intestinal tissue samples, sample volumes of 1 μl (with 2 μg of protein) were separated by gel electrophoresis in SDS-PAGE gels containing 80 μg/ml gelatin. […] The molecular weights of the proteases were estimated by use of a standard protein ladder (Invitrogen). Gels were digitized and bands were analyzed by densitometry in ImageJ (rsbweb.nih.gov/ij/). […] These gels were compared to a concurrently run gel processed normally.

[2] = test system: mucin 13, occludin, and E-cadherin; assay: Immunoblots of epithelial barrier proteins in post-ischemic intestinal homogenates (segment 7); design: species or system rat; conditions: ileum segment 7, two hour ex vivo ischemia
Procedure: Immunoblotting—To determine whether selected epithelial barrier proteins were degraded during ischemia, pre- and post-ischemic intestinal tissue homogenates (segment 7) were analyzed for relative levels of mucin 13, occludin, and E-cadherin.
Tissues were homogenized for immunoblot analysis in buffer (CelLytic, Sigma-Aldrich) with protease inhibitor cocktail (HALT, Thermo Scientific, 1:100 dilution) and centrifuged (1×10^4 g, 20 min). Protein concentration in supernatants was determined (BCA, ThermoScientific). To separate proteins by gel electrophoresis, 30 μg of protein/well were loaded in 8 or 12% resolving gels with 4% stacking gels and transferred to nitrocellulose membranes (Bio-Rad, Hercules, Calif.). Membranes were blocked for one hour with either 5% bovine serum albumin (BSA) or 5% nonfat milk in tris-buffered saline with 0.5% Tween-20 (TBS-T). Primary antibodies diluted in 1% BSA or 1% nonfat milk against mucin 13 (1:1000, extracellular domain, sc-66973 Santa Cruz Biotechnology, Santa Cruz, Calif.), E-cadherin (1:1000, intracellular domain, 33-4000, Invitrogen), occludin (1:1000, intracellular domain, 33-1500, Invitrogen), pancreatic trypsin (1:1000, sc-137077 Santa Cruz Biotechnology), or β-actin (1:1000, sc-130301, Santa Cruz Biotechnology) were incubated overnight at 4° C. After incubation, membranes were washed with TBS-T (3×, 10 min) before addition of goat anti-rabbit or rabbit anti-mouse secondary antibodies (Santa Cruz Biotechnology) diluted 1:1000 in TBS-T. Following secondary antibody incubation (60 min), the membranes were washed with TBS-T (3×) and developed.

[3] = test system: ischemic small intestine segments (jejunum to ileum); assay: Ex vivo intestinal ischemia: transmural fluorescein transport across wall of flushed intestinal segments; design: species or system rat
From the text: Intestinal Ischemia—Since intestinal properties are non-homogenous, the transmural permeability was investigated over the entire length of the jejunum and ileum. Due to physical constraints of the small intestine anatomy, it is not feasible to simultaneously analyze permeability from multiple segments in vivo. Therefore, an ex vivo approach similar to previously published studies was designed to measure permeability along the length of the small intestine.
A midline incision was made to expose the intestine in anesthetized rats. The proximal end of the jejunum (approximately 5 cm distal from the ligament of Treitz) was cannulated with a female luer to barb tube connector (⅛″ inner diameter). The intestine was removed and placed in saline immediately before euthanasia. In order to focus the analysis on permeability of the intestinal wall during ischemia in the absence of luminal contents (including the digestive proteases or cytotoxic factors from food), the lumen of the intestine was flushed with 40 ml saline using pulsatile pressure. Visual examination confirmed all solid contents were removed. Next, the intestine was cut into eight equal length segments (˜8 cm) sequentially ordered from the proximal jejunum (position 1) to the distal ileum (position 8). Both ends of each segment were cannulated with Female Luer to Barb tube connectors (thus allowing entry and exit points from the intestinal lumen to be sealed completely), secured with 4-0 suture, and the exterior portion of one adaptor on each segment sealed with clay.
To determine the transmural permeability of the intestine, all 8 segments from each animal were filled with a low molecular weight tracer as a sensitive measure of early barrier breakdown prior to the initiation of ischemia, fluorescein (332 Da M.W., 20 μg/ml from 5 mg/ml stock in ethanol; 0.308 osm/L; Sigma-Aldrich, St. Louis, Mo.) mixed with saline, glucose (100 mg/ml in saline; 0.550 moles/L; 0.863 osm/L, Sigma-Aldrich), the non-metabolizing glucose analog mannitol (100 mg/ml in saline; 0.550 moles/L; 0.863 osm/L), the serine protease inhibitor tranexamic acid (31 mg/ml in saline; 0.200 moles/L; 0.508 osm/L, Sigma-Aldrich), the MMP inhibitor doxycycline hyclate (1 mg/ml in saline; 1.955×10^−3 moles/L; 0.310 osm/L, Sigma-Aldrich), or the MMP inhibitor GM 6001 [38] (1 μg/ml in saline from 1 mg/ml stock in DMSO; 2.57×10^−6 moles/L; 0.308 osm/L, Millipore, Billerica, Md.). […]
Sealed segments were rinsed in saline, individually placed in 15 ml conical tubes containing 6 ml saline, and incubated at 37° C. for 2 hours to simulate ischemic conditions. […] Plates were read in a plate reader (FilterMax F-5 Multi-mode, Molecular Devices, Sunnyvale, Calif.) for concentration of fluorescein (excitation 494/emission 521) to measure diffusion across the wall of the intestine.
Permeability Analysis—To determine the fluorescein transport across the ischemic intestinal wall, the fluorescence at time 0 was subtracted from fluorescence values at later time points to correct for background, and fluorescence values were corrected to account for the volume reduction due to sampling during the experiment. The RFU measurements were converted to equivalent moles by using the linear relationship between concentration and fluorescein fluorescence (not shown, R^2=0.999). The transport of fluorescein across the wall (measured in moles, per time) was computed as the change in fluorescence over a 30 min interval divided by 30 min.

MMP-1/9 = assay: Plasma MMP-1/9 activity by plate zymography after hemorrhagic shock; assay type: in vivo, rat; conditions: compared to the HS+SAL animals
Procedure: Enzyme and Protease Activity Measurements—All microplate assays were performed in duplicate in 96 well black-sided flat bottom polystyrene plates (Corning, New York, N.Y.) and measured in a microplate reader (FilterMax F-5 Multi-mode, Molecular Devices, Sunnyvale, Calif.). Plasma MMP-1/9 activity was also detected by plate zymography using a protease specific substrate (American Peptide Company, Sunnyvale, Calif.).

## CS(=O)(=O)O.CS(=O)(=O)O.N=C(N)Nc1ccc(C(=O)Oc2ccc3cc(C(=N)N)ccc3c2)cc1 [ANGD, 6-amidino-2-naphthyl p-guanidinobenzoate dimethanesulfonate]
Experimental shock; enteral treatment in the small intestine
  microhemorrhages in the intestine: reduced microhemorrhages in the intestine
Experimental shock; enteral, similar model of HS (Altshuler et al. 2012)
  MPO infiltration into the lungs: attenuate MPO infiltration into the lungs
~20-kDa serine proteases; dimethanesulfonate
  serine protease (~20 kDa) band intensities: substantial decrease
~20-kDa serine proteases; listed as nafamostat mesilate, dimethanesulfonate
  serine protease (~20 kDa) band intensities: disappeared

## CNC(=O)[C@H](Cc1c[nH]c2ccccc12)NC(=O)[C@@H](CC(=O)NO)CC(C)C [GM 6001, N-[(2R)-2-(hydroxamidocarbonylmethyl)-4-methylpentanoyl]-L-tryptophan methylamide]
Intestinal villi
  intestinal villi structure: did not prevent the villi destruction
20 kDa serine proteases
  20 kDa serine protease activity bands: serine protease bands remained in all gels
[1]
  MMP gelatinase activity bands (220 kDa MMP-9 dimers, pro-MMP-2, MMP-2, 50 kDa band): reduced or eliminated
[2]
  E-cadherin levels (immunoblot): neither doxycycline nor GM 6001 were effective
  mucin 13 levels (immunoblot): neither doxycycline nor GM 6001 were effective
  occludin levels (immunoblot): neither doxycycline nor GM 6001 were effective
[3]; ex vivo ischemia, inhibitor in lumen without glucose
  transmural permeability, 90-120 min period: more effective at reducing the transmural permeability compared to either doxycycline or tranexamic acid
[3]; ex vivo ischemia, inhibitor in lumen without glucose, vs saline
  fluorescein transport rates, 30-60 min and 60-90 min periods: significantly decreased compared to the saline treated intestines

## OC[C@@H](O)[C@@H](O)[C@H](O)[C@H](O)CO [Mannitol, mannitol]
Intestinal villi
  intestinal villi structure: nor preserved villi structure
[3]; ex vivo, treatment in lumen, two-hour ischemic period
  fluorescein transport across the wall of the intestine: neither prevented fluorescein penetration

## C[C@H]1c2cccc(O)c2C(=O)C2=C(O)[C@]3(O)C(=O)C(C(N)=O)=C(O)[C@@H](N(C)C)[C@@H]3[C@@H](O)[C@@H]21 [doxycycline]
MMP-1/9
  plasma MMP-1/9 activity reduction: 85%

## tosyl-lysine chloromethyl ketone [TLCK]
~20-kDa serine proteases
  serine protease (~20 kDa) band intensities: substantial decrease
~20-kDa serine proteases; listed as tosyllysine chloromethyl ketone hydrochloride
  serine protease (~20 kDa) band intensities: disappeared
